Source: PMC7684578, “Isopedopeptins A–H: Cationic Cyclic Lipodepsipeptides from Pedobacter cryoconitis UP508 Targeting WHO Top-Priority Carbapenem-Resistant Bacteria” (ACS Chemical Biology, 2020)
In brackets after ≈: the same amount, converted by molar mass. Like-named read-outs stand apart in the source and are kept apart here. Starred links: 1 amine or outer side, 2 acyl side, 3 side chain; linkers in the order of their positions; H or OH if unused. Positions of bridges follow the written chain, without caps; N, C: chain ends. Non-standard residues stand in square brackets, D forms with d. Residues, ends and D or L forms follow the SMILES beside them. X2 = CCCCCCC[C@H](CC(=O)[*:1])O[*:2]; Val(3-OH) = CC(C)(O)[C@H](N)C(=O)O; X1 = C/C=C(/N[*:1])C(=O)[*:2]; Dab = NCC[C@H](N)C(=O)O; Dap = NC[C@H](N)C(=O)O

Key:
Assay in all cases: MIC, extended panel, broth micro-dilution in MHII (EUCAST/CLSI)
Assay type in all cases: cell-based
[1] = tested on: E. coli; settings: Escherichia coli
Protocol: (§1) Plates were, subsequently, incubated at 37 °C in the dark, and viable colonies counted after 16 to 24 h.
(§2) To estimate MIC values (concentration range between 0.05 and 50 µg/mL), solutions of the tested compounds (100, 10 and 1 and if needed 0.1 µg/mL in MeOH) were dispensed into wells of microtiter plate(s) and the solvent was evaporated in a fume-hood. Subsequently, suspensions of pathogen cells in the appropriate medium were dispensed to the wells of microtiter plates and the growth of pathogens were observed after 16 to 20 h of incubation at 37 °C in the dark. Positive controls were the respective pathogen cells suspended in untreated sterile media without addition of compounds(s) and negative controls were the media only. MIC values were defined as the lowest concentration of each compound with no visible growth of pathogen. All MIC tests were performed in triplicate and […]
(§3) MIC determination for compound 2 against an extended panel of bacterial strains.
(§4) Compound 2 was evaluated against a panel of Gram-negative bacteria (Hughes strain collection), including: A. baumannii ATCC 19606, wild-type; BM4454, multidrug-resistant clinical isolate; BM4652, efflux-defective derivative of BM4454; CH9622, colistin-resistant clinical isolate; E. coli ATCC 25922, wild-type; CH3130, efflux-defective ΔtolC mutant isogenic to ATCC 25922; D22, a drug-hypersensitive lpxC mutant of E. coli; CH3491, multidrug-resistant clinical isolate; CH9623 and CH9624, colistin-resistant clinical isolates carrying mcr-1; K. pneumoniae ATCC 13833, wild-type; […]
(§5) clinical isolate; CH9625 and CH9626, colistin-resistant clinical isolates; P. aeruginosa PAO1, wild-type; PAO750, efflux-defective mutant isogenic to PAO1. The in vitro antimicrobial activity of each compound was determined by measuring the MIC value using the broth micro-dilution technique in cation-adjusted Mueller-Hinton II broth (Becton-Dickinson, 212322) according to EUCAST and CLSI guidelines. Each compound prepared in MHII medium was dispensed into a 96-well round-bottomed microtiter plate to give final assay concentrations from 64 µg/mL down to 0.25 µg/mL (two-fold dilution series in 10 wells, plus two control wells: medium control with no bacteria or compound, and growth control with bacteria added but no compound). Bacteria were prepared from fresh colonies grown on non-selective MHII agar, then suspended in saline to 0.5 McFarland (≅ 1.5 × […]
(§6) 10^8 CFU/mL) with turbidity assessed using a Sensititre Nephelometer (Trek Diagnostics Systems Ltd, UK). 50 µL of this bacterial suspension was transferred to 10 mL of MHII broth to give a final bacterial concentration ≅ 5 × 10^5 CFU/mL (acceptable range 3 – 7 × 10^5 CFU/mL). 50 µL of bacterial suspension was pipetted into each well (except the medium control well, where 50 µL MHII was pipetted). Final volume in each well was 100 µL. Plates were covered and incubated without shaking for 18-20 h at 35 °C ± 2 °C. MIC was read visually, as complete inhibition of growth by the unaided eye, using the medium-only wells as the control. Each compound was assayed at least in duplicate.
(§7) Additionally, the MIC for compound 2 against clinical carbapenem-resistant strains of A. baumannii […]
(§8) determined at the Public Health Agency of Sweden (according to EUCAST recommendations).
(§9) In vitro Cytotoxicity Determination. In vitro cytotoxicity was determined by a fluorometric microculture cytotoxicity assay,7 based on hydrolysis of fluorescein diacetate to fluorescein by cells with intact plasma membranes. In short, HepG2 cells (hepatocellular carcinoma cells, ATCC), in Eagle's Minimum Essential Medium (ATCC) supplemented with 10 % fetal bovine serum, penicillin/streptomycin (100 U/100 µg/mL) and 2 mM L-glutamine, were seeded in 384-well assay plates at a density of 1000 cells/well. The cells were incubated over night at 37°C and compounds in 10 mM DMSO were added, to obtain final concentrations 64 µM – 0.25 µM in two-fold dilutions.
(§10) After incubation for 72 h at 37°C, the cells were pelleted and washed. Fluorescein diacetate was […]

[2] = tested on: A. baumannii; settings: Acinetobacter baumannii
Protocol: as §1, §2, §3, §4, §5, §6, §7, §8, §9, §10

[3] = tested on: P. aeruginosa; settings: Pseudomonas aeruginosa
Protocol: as §1, §2, §3, §4, §5, §6, §7, §8, §9, §10

[4] = tested on: K. pneumoniae; settings: Klebsiella pneumoniae
Protocol: as §1, §2, §3, §4, §5, §6, §7, §8, §9, §10

For `C/C=C1/NC(=O)[C@H](CCN)NC(=O)[C@H](CC(C)C)NC(=O)[C@H](CN)NC(=O)C[C@@H](CCCCCCC)OC(=O)[C@H](CC(=O)O)NC(=O)[C@H](C(C)(C)O)NC(=O)[C@@H](Cc2ccccc2)NC(=O)[C@H](CN)NC(=O)[C@H]([C@@H](C)O)NC1=O` [Compound 2, isopedopeptin B] ([Dap]L[Dab][X1]T[Dap][dF][Val(3-OH)]D; linker N-C via X2), the MIC ([1]; ATCC25922, WT, read-out: MIC E. coli ATCC25922) was 8 µg/mL (≈ 7.16 µM), the MIC ([1]; ATCC25922, read-out: MIC E. coli CH3130, ΔtolC mutant isogenic to ATCC25922) was 8 µg/mL (≈ 7.16 µM) and the MIC ([1]; ESC, CIP, GEN, SXT, read-out: MIC E. coli CH3491) was 8 µg/mL (≈ 7.16 µM). For the same compound, the MIC ([1]; read-out: MIC E. coli D22, lpxC mutant, hypersensitive) was 4 µg/mL (≈ 3.58 µM), the MIC ([2]; ATCC19606, WT, read-out: MIC A. baumannii ATCC19606) was 8 µg/mL (≈ 7.16 µM) and the MIC ([2]; Col (colistin-resistant), read-out: MIC A. baumannii EN0287) was 8 µg/mL (≈ 7.16 µM). For the same compound, the MIC ([2]; MDR clinical, read-out: MIC A. baumannii BM4454) was 8 µg/mL (≈ 7.16 µM), the MIC ([2]; read-out: MIC A. baumannii BM4652, efflux-defective derivative of BM4454) was 8 µg/mL (≈ 7.16 µM) and the MIC ([2]; read-out: MIC colistin-resistant strains of A. baumannii, strains not named) was at least 8 µg/mL. It also gave an MIC ([3]; PAO1, read-out: MIC P. aeruginosa PAO750) of 32 µg/mL (≈ 28.6 µM), an MIC ([3]; PAO1, WT, read-out: MIC P. aeruginosa PAO1) of 32 µg/mL (≈ 28.6 µM) and an MIC ([4]; ATCC13833, WT, read-out: MIC K. pneumoniae ATCC13833) of 4 µg/mL (≈ 3.58 µM). The MIC ([4]; Col, read-out: MIC K. pneumoniae CH9625) was 4 µg/mL (≈ 3.58 µM), the MIC ([4]; Col, read-out: MIC K. pneumoniae CH9626) was 4 µg/mL (≈ 3.58 µM) and the MIC ([4]; ESC, CARBA, CIP, GEN, AMK, SXT, TET, clinical multidrug-resistant, read-out: MIC K. pneumoniae CH3498) was 8 µg/mL (≈ 7.16 µM). It also gave an MIC ([4]; WT, read-out: MIC K. pneumoniae 1161486) of 8 µg/mL (≈ 7.16 µM), an MIC ([4]; read-out: MIC K. pneumoniae 1161486a, ΔtolC mutant isogenic to 1161486) of 8 µg/mL (≈ 7.16 µM) and an MIC ([4]; read-out: MIC colistin-resistant strains of K. pneumoniae, strains not named) of at least 4 µg/mL.
